Measurements published in patent US20220264883A1, “IMIDAZOTHIAZOLE COMPOUNDS AND METHODS FOR TREATING PLANT NEMATODE INFECTIONS” (The Governing Council of the University of Toronto, priority 2019, published 2022).

Legend:
[1] = tested on: P. pacificus; test: Pristionchus pacificus dose-response experiments; type: in vivo; details: larvae, animals reaching L3 stage or older counted
Description: Dose-response assays were carried out exactly as those described above for the C. elegans L1 dose-response experiments. However, the compounds of the application-induced phenotypes in P. pacificus, even at the highest concentrations, were a combination of lethality and larval arrest. Therefore, for the Pristionchus dose-response assays, the number of animals that reached the L3 stage or older was quantified, as opposed to the number of viable worms. The arrested animals appeared very sick, and would likely die before reaching reproductive adulthood. Therefore, this arrested phenotype was considered to be practically analogous to lethality. The “relative viability” values were calculated the same way as for the C. elegans dose-response experiments, and were averaged across at least three biological replicates. LC50 values were calculated in the same manner as for the C. elegans dose-response assays.

[2] = HEK cell culture and dose-response experiments; type: cell-based, Human; details: human, HEK293 cells, non-target system, CellTiter-Blue, read-out: HEK Cells LC50
Description: HEK293 cells were seeded into 96-well plates, at 5000 cells per well, in 100 μL total volumes of DMEM/10% FBS/1% PS media and grown overnight at 37° C. in the presence of 5% CO2. Compounds (0.5 μL volumes from appropriate source plates) were then added to cells, and growth was continued for an additional 48 hours. Following growth, 10 μL of CellTiter-Blue Viability reagent (Promega) was added to each well, and plates were incubated for an additional 4 hours at 37° C. in the presence of 5% CO2. Fluorescence measurements (560 nm excitation/590 nm emission) were then performed using a CLARIOstar Plate Reader (BMG Labtech) to quantify reagent reduction and estimate cell viability.

[3] = Danio rerio (zebrafish) embryo dose-response experiments; type: in vivo; details: AB/Tubingen, Danio rerio (zebrafish), in vivo, other: immersion in chemical-treated water; non-target system; embryos, 24 hours exposure; read-out: D. rerio LC50
Description: Zebrafish chemical assays were performed similarly to previously described methods^63. In brief, fish were maintained at 28.5° C. on a 14/10 hour light/dark cycle and staged according to hours post fertilization (hpf). For each biological replicate, eggs from LT fish (AB/Tubingen strain) were collected at 4 hpf. At 24 hpf, embryos were arrayed in 24 well plates, 10 per well. In 2 ml tubes, 4 μl of chemical dissolved in DMSO at the appropriate concentration was added to 800 μl of water and then vortexed for 30 s intensively. Water was removed from the embryos in the wells and 800 μl of chemical-treated water was transferred to each of the wells. The DMSO control wells contained DMSO alone. The final DMSO concentration in every well was 0.5% (v/v). […] The embryos were incubated in the chemicals for 24 hours and scored for death and toxicity at 48 hpf. Toxicity was defined as the embryos showing developmental defects such as a curved body, reduced body size, skin whiteness, and heart edema. “Relative viability” was calculated by dividing the number of viable and properly developed embryos in the treatment wells by the average number of viable and properly developed embryos across six DMSO control wells. Three biological replicates were performed for each dose-response experiment, and the relative viability values were averaged across the three replicates.

[4] = tested on: C. elegans; test: C. elegans viability at a single concentration (Table 3); type: in vivo; details: Caenorhabditis elegans; 100 μM
Description: Forty microliters of an HB101 bacterial suspension in liquid NGM (see above) was added to each well of a 96-well flat-bottom culture plate, after which approximately 25 synchronized L1 worms, in 10 μl of M9 buffer (see ref. 59 for the recipe), were added to each well. The synchronized L1 worms were obtained from an embryo preparation performed the previous day (see ref. 59 for the protocol). For the L1 assays, 0.5 μl of chemical solution (or DMSO alone) was immediately added to the wells using a multichannel pipette, the final DMSO concentration is 1% (v/v). The worms were incubated for 3 days at 20° C. and the number of viable animals was counted. […] Although the counts were performed after 3 days of incubation in the chemical, it was noted that the L1s were dead within 24 hours of the addition of the chemicals. For the L2/L3 assays, the worms were incubated in the absence of chemical for 1 day at 20° C. until they reached the L2/L3 stage, at which point chemical was added as described above. The worms were then allowed to incubate for 2 days at 20° C. and the number of viable animals was counted as described for the L1 assay. For the L4 assays, the worms were incubated for 2 days at 20° C. before the addition of chemicals. The L4-stage worms were then incubated in chemical for an additional day before quantifying the number of viable animals. The adult assays were performed the same way as the L4 assays, however HT115 E. coli carrying the empty dsRNA expressing vector L4440 was used in place of HB101 and the worms were cultured at 25° C. as opposed to 20° C. for the entirety of the experiment. The HT115 suspension was made by concentrating a bacterial culture, with an OD600 of ˜ 0.8, five-fold with liquid NGM containing 1 mM IPTG and 100 μg/ml carbenicillin. The HT115 cells were induced with 1 mM IPTG for one hour before concentrating with NGM.
(§1) The ability of exemplary compounds of the application to kill C. elegans at 100 μM (except for compound If which was tested at 50 μM) and to affect the mobility of M. chitwoodi at 45 μM was tested as described above for M. incognita infective juveniles. Percent mobility was measured after 2 days of chronic exposure to test compounds (Table 3).

[5] = tested on: M. chitwoodi; test: Root-knot nematode M. chitwoodi mobility (Table 3); type: in vivo, Meloidogyne chitwoodi; details: 45 μM, 2 days of chronic exposure
Description: M. incognita (Kofoid & White) Chitwood Race 1 (originally isolated in Maryland) was used for all experiments, and was maintained on pepper (Capsicum annuum L.) cv. PA-136 in a greenhouse as previously described^64. Infective J2 juveniles were collected as described in ref.65. The microwell dose-response experiments were carried out similarly to previously described protocols^64, 66. In brief, 100 J2s, in 10 μL of deionized water, were added to the wells of 96-well polystyrene plates, after which 190 μL of deionized water containing dissolved chemical, or DMSO alone, was added to each well. The chemicals were tested at 45 μM, and the final concentration of DMSO in each well was 0.5% (v/v). The wells were covered with a plastic adhesive strip, and the lids of the plates were sealed with parafilm. The plates were incubated at 25° C. The mobile fraction of worms was quantified by counting the number of mobile and immobile worms after 2 days of incubation, and then dividing the number of mobile worms by the total number of worms in the well. Three technical replicates were performed for each treatment, and an average value for the mobile fraction of worms was calculated across the three replicates. The percent effectiveness at inhibiting nematode movement was calculated by dividing the average value for the chemical treatment by the average value for the DMSO control, then subtracting this value from 1, and then multiplying by 100.
M. chitwoodi race 1 (the strain commonly found in the pacific northwest of the United States) was used for all experiments, and was maintained on tomato plants (Solanum lycopersicum ‘Rutgers’) as previously described^73. The M. chitwoodi in vitro assays were performed identically to the M. incognita in vitro assays (see above).
as §1

For Fc1ccc(-c2cn3ccsc3n2)cc1 [Ib], the LC50 [1] was 14.7 µM, the CC50 at 48 h [2] was > 100 µM and the LC50 at 24 h [3] was > 100 µM. It also gave a viability at 100 µM [4] of 0% and an RKN mobility [5] of 43.2%.

With Cc1csc2nc(-c3ccccc3)cn12 [Compound Ie] the LC50 [1] was 45.5 µM, the CC50 at 48 h [2] was > 100 µM and the LC50 at 24 h [3] was > 100 µM. For the same compound, the viability at 100 µM [4] was 100% and the RKN mobility [5] was 50.8%.

For Clc1ccc(-c2cn3ccsc3n2)cc1 [Ia], the LC50 [1] was 6.1 µM, the CC50 at 48 h [2] was > 100 µM and the LC50 at 24 h [3] was > 100 µM. For the same compound, the viability at 100 µM [4] was 0% and the RKN mobility [5] was 0%.
